Source: patent publication US8937091B2 (Japan Science and Technology Agency, priority 2009, dated 2015)

Tests used:
[1] = tested on: SOCE (store operated calcium entry) in CHO cells; test: Assay of SOCE (store operated calcium entry)-inhibiting action; assay type: cell-based, Chinese hamster; conditions: CHO cells, thapsigargin; for inhibition at 10 µM / inhibition at 30 µM / inhibition at 100 µM: Cricetulus griseus, CHO, read-out: SOCE level (percentage of inhibition)
Procedure: The extracellular fluid (i.e., medium) of cultured Chinese hamster ovary (CHO) cells was replaced by BSS containing no calcium. One minute later, a test compound was added. Two minutes later, 1 μM thapsigargin was added to cause depletion of the intracellular calcium store. Nine minutes later, calcium chloride (final concentration: 2 mM) was added to the extracellular fluid. The SOCE-inhibiting action levels at different compound concentrations after the addition of calcium chloride were determined as the percentage of inhibition (%) by evaluating the influence of the compound on the degree of increase in the intracellular calcium concentration.
(§1) Hereafter, the numerals in parentheses written after the TG level, the SOCE level, and the IICR level correspond to the test compound concentrations. The number following the name of each title compound used in the Examples below represents a compound ID number designated arbitrarily by the present inventors.

[2] = tested on: IICR (IP3 induced calcium release) in CHO cells; test: Assay of IICR (IP3 induced calcium release)-inhibiting action; assay type: cell-based, Chinese hamster; conditions: CHO cells, 10 μM ATP; for inhibition at 10 µM / inhibition at 30 µM / inhibition at 100 µM: Cricetulus griseus, CHO, read-out: IICR level (percentage of inhibition)
Procedure: The extracellular fluid (i.e., medium) of cultured CHO cells was replaced by BSS containing calcium. One minute later, a test compound was added. Two minutes later, 10 μM ATP was added. The IICR-inhibiting action levels at different compound concentrations after the addition of ATP were determined as the percentage of inhibition (%) by evaluating the influence of the compound on the degree of increase in the intracellular calcium concentration.
as §1

Compound	inhibition at 10 µM ([1]; test compound 10 μmol)	inhibition at 30 µM ([1]; test compound 30 μmol)	inhibition at 100 µM ([1]; test compound 100 μmol)	inhibition at 10 µM ([2]; test compound 10 μmol)	inhibition at 30 µM ([2]; test compound 30 μmol)	inhibition at 100 µM ([2]; test compound 100 μmol)	SOCE level (percentage of inhibition) ([1]; test compound 10 μmol)	SOCE level (percentage of inhibition) ([1]; test compound 30 μmol)	SOCE level (percentage of inhibition) ([1]; test compound 100 μmol)	IICR level (percentage of inhibition) ([2]; test compound 10 μmol)	IICR level (percentage of inhibition) ([2]; test compound 30 μmol)	IICR level (percentage of inhibition) ([2]; test compound 100 μmol)
O=C(CCNCc1ccccc1)c1ccc(Br)s1 [Example 382, 2-N-benzylaminoethyl-5-bromo-2-thienylketone]	0%	10%	20%	0%	10%	50%						
O=C(CCNCCS)c1ccc(Oc2ccccc2)cc1 [Example 112, 2-(N-mercaptoethyl)aminoethyl-4-phenoxyphenylketone]	0%	0%	30%	20%	30%	40%						
CCC(CO)(CO)NCCC(=O)c1ccc2c(Cl)cccc2c1 [Example 90, 2-(N-1,1-dihydroxymethylpropyl)aminoethyl-5-chloro-2-naphthylketone]	0%	10%	30%	10%	20%	100%						
Cc1cccc2cc(C(=O)CCN(C)Cc3ccccc3)ccc12 [Example 78, 2-(N-methylbenzyl)aminoethyl-5-methyl-2-naphthylketone]	10%	20%	50%	20%	70%	90%						
CCCCN(CCO)CCC(=O)c1ccco1 [Example 234, 2-(N-2-hydroxyethylbutyl)aminoethyl-2-furylketone]	0%	0%	10%	0%	70%	80%						
CCCCN(CCC(=O)c1ccc(Br)cc1)Cc1ccccc1 [Example 375, 2-(N-butyl-N-benzyl)aminoethyl-4-bromophenylketone]	4%	0%	40%	0%	33%	0%						
CC(CN(Cc1ccccc1)C(C)(C)C)C(=O)c1ccc(F)cc1 (stereo not drawn) [Example 162, 2-(N-t-butylbenzyl)amino-1-methylethyl-4-fluorophenylketone]	0%	0%	40%	0%	0%	0%						
NCCSSCCN(CCC(=O)c1ccc(I)cc1)CCC(=O)c1ccc(I)cc1 [Example 388, N,N-bis(4-iodobenzoylethyl)cystamine]	20%	40%	50%	0%	0%	70%						
O=C(CCN(CCO)CCO)c1ccccn1 [Example 243, 2-(N-bis-2-hydroxyethyl)aminoethyl-2-pyridylketone]	0%	0%	0%	0%	0%	50%						
CC(C)N(CCO)CC(=O)c1ccccc1 [Example 206, 2-(N-hydroxyethylisopropyl)aminomethylphenylketone]	0%	0%	0%	0%	0%	40%						
CCCCN(CCO)CCC(=O)c1cccnc1 [Example 180, 2-(N-2-hydroxyethylbutyl)aminoethyl-3-pyridylketone]	0%	0%	0%	0%	0%	50%						
CC(C)(C)N(CCC(=O)c1ccc(I)s1)Cc1ccccc1 [Example 405, 2-(N-t-butyl-N-benzyl)aminoethyl-5-iodo-2-thienylketone]	20%	40%	50%	78%	73%	35%						
CCCCN(CCO)CCC(=O)c1cnccn1 [Example 108, 2-(N-butyl-2-hydroxyethyl)aminoethyl-2-pyrazinylketone]	0%	0%	0%	0%	10%	80%						
CC(C)(C)N(CCC(=O)c1cnccn1)Cc1ccccc1 [Example 213, 2-(N-2-benzyl-t-butyl)aminoethyl-2-pyrazylketone]	0%	0%	10%	20%	80%	90%						
CC(C)N(CCO)CCC(=O)c1cc(Cl)sc1Cl [Example 203, 2-(N-isopropyl-2-hydroxyethyl)aminomethyl-3-(2,5-dichlorothiophenyl)ketone]	50%	20%	10%	40%	90%	100%						
Cc1cc(C(=O)CCN(CCO)C(C)C)c(C)s1 [Example 230, 2-(N-2-hydroxyethylisopropyl)aminoethyl-2,5-dimethyl-3-thiophenylketone]	0%	0%	0%	0%	0%	20%						
CN(CCC(=O)c1cccs1)Cc1ccccc1 [Example 125, 2-(N-methylbenzyl)aminoethyl-2-thiophenylketone]	0%	0%	0%	0%	30%	70%						
CCN(CCO)CCC(=O)c1cc(C)c(C)o1 [Example 226, 2-(N-2-hydroxyethylethyl)aminoethyl-4,5-dimethyl-2-furylketone]	0%	0%	0%	0%	0%	50%						
C=CCC(=O)c1cccc2ccccc12 [Example 93, Allyl-1-naphthylketone]	0%	0%	30%	20%	70%	90%						
CN1CCN(CCC(=O)c2ccccc2)CC1 [Example 131, 2-(N-methylpiperazyl)ethylphenylketone]	0%	0%	0%	30%	20%	50%						
CC(C)N(CCC(=O)c1cccc2ccccc12)Cc1ccccc1 [Example 82, 1-(N-benzylisopropyl)aminoethyl-1-naphthylketone]	0%	0%	20%	50%	70%	100%						
CC(C)N(CCC(=O)n1nnc2ccccc21)Cc1ccccc1 [Example 295, 2-(N-isopropylbenzyl)aminoethyl-1-benzotriazoketone]	0%	0%	0%	80%	70%	60%						
CC(C)N(CCC(=O)c1ccc(I)s1)Cc1ccccc1 [Example 390, 2-(N-isopropyl-N-benzyl)aminoethyl-5-iodo-2-thienylketone]	20%	40%	50%	0%	0%	70%						
CCN(CCO)CCC(=O)c1ccc(Br)s1 [Example 331, 2-(N-2-hydroxyethylethyl)aminoethyl-5-bromo-2-thienylketone]	0%	10%	20%	0%	10%	70%						
CC(C)(C)N(CCC(=O)c1ccc(C#N)cc1)Cc1ccccc1 [Example 304, 4-cyanophenyl(N-benzyl-N-t-butyl)aminoethylketone]							0%	0%	10%	90%	100%	20%
